The values that follow come from patent US20250163032A1, “NOVEL MOLECULES AS INHIBITORS OF DNA DAMAGE REPAIR PATHWAY” (VRise Therapeutics, Inc., priority 2023, published 2025).

pIC50: −log10 of the molar value.

The pIC50 is −log10 of the IC50, conventionally taken in molar units. One may read the inhibition as the change of the read-out against control, counted positive when it falls.

USP1/UAF1, sequence (O94782 whole entry): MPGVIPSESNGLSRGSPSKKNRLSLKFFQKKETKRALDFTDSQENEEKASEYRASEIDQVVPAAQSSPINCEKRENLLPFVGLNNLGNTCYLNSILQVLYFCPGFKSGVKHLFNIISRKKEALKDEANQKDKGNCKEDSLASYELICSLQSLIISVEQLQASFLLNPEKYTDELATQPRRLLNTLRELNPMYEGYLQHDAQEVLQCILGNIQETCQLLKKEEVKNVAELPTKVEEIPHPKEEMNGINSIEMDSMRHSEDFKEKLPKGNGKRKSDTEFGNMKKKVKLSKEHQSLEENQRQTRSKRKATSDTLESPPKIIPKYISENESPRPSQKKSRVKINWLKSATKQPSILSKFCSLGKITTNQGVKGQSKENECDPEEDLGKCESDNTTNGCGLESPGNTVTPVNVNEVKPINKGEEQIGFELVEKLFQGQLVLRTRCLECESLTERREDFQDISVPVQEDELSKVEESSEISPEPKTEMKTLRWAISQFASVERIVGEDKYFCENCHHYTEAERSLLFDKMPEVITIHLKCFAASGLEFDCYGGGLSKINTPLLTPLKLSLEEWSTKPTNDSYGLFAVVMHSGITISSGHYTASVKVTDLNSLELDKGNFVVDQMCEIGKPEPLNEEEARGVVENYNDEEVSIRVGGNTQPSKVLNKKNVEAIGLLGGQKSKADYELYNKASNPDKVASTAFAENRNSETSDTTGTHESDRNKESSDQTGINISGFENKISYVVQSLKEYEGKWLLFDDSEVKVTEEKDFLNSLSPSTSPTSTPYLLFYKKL
USP1/UAF1, sequence (Q8TAF3 whole entry partner): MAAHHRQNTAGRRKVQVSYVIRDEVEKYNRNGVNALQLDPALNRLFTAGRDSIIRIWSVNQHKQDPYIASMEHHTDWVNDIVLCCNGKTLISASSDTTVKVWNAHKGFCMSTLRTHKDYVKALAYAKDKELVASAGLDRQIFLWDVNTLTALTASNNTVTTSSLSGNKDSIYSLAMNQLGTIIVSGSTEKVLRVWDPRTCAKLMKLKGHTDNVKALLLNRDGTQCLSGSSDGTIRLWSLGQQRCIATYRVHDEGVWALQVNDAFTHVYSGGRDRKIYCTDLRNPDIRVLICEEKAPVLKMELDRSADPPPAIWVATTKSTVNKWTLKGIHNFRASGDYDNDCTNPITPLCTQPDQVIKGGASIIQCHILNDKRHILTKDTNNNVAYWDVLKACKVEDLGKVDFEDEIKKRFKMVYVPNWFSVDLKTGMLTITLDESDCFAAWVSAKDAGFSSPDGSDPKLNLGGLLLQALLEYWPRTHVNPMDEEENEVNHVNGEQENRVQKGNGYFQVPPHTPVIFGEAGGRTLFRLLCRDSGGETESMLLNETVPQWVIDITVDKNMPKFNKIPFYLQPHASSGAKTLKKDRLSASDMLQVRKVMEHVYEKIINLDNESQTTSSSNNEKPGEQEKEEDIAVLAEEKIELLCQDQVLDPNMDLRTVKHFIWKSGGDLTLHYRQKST

One assay has as its target USP1/UAF1 (Homo sapiens, UniProt O94782). Kind of assay: USP1/UAF 1 assay (ubiquitin-rhodamine110 fluorometric deubiquitinase assay). The format is biochemical. The following applies: 1 nM USP1/UAF1, 150 nM Ub-Rho; read-out: Biochemical assay IC50. The method, then: Test-1: USP1/UAF 1 Assay:
Deubiquitinase activity of USP1/UAF1 was monitored in a fluorometric assay using ubiquitin-rhodamine110 as substrate. Briefly, enzymatic reactions were conducted in an assay buffer composed of 50 mM HEPES, pH 7.8, 0.5 mM EDTA, 100 mM NaCl, 1 mM TCEP, 0.1 mg/mL BSA, and 0.01% Tween-20 that contained 1 nM USP1/UAF1. Compounds were tested at desired concentrations. The plates were incubated for 15 min to attain equilibrium, and then the enzymatic reaction was initiated by dispensing 150 nM Ub-Rho solution. Fluorescence measurement was performed in a high throughput CCD imager, where kinetic measurements of rhodamine fluorescence were acquired using a 480 nm excitation/540 nm emission filter set. The change in fluorescence intensity over a 5-minute reaction period (typically associated with less than 10% substrate conversion) was normalized against no-inhibitor and no-enzyme controls and the resulting percent inhibition data were fitted to a sigmoidal dose response using a four-parameter Hill equation. Data was be analysed and percent inhibition and/or IC50 for each test compound is calculated accordingly.
Consider `CC(C)c1ccccc1-c1nc2c(c(NCc3ccc(-c4nc(C(F)(F)F)cn4C)cc3)c1C#N)CCC2` [Example 20, 2-(2-isopropylphenyl)-4-((4-(1-methyl-4-(trifluoromethyl)-1H-imidazol-2-yl)benzyl)amino)-6,7-dihydro-5H-cyclopenta[b]pyridine-3-carbonitrile], for which the pIC50 was 6.00 to 7.00. Same read-out and setting: next, `CC(C)c1ccccc1-c1nc(NCc2ccc(-c3nc(C(F)(F)F)cn3C)cc2)c2[nH]cnc2n1` [Example 15, 2-(2-isopropylphenyl)-N-(4-(1-methyl-4-(trifluoromethyl)-1H-imidazo-2-yl)benzyl)-7H-purin-6-amine]: above 7.30.

The assay is the same for the next values; noted with them: read-out: Biochemical assay % inhibition @1 μM.
Consider `Cn1cc(C(F)(F)F)nc1-c1ccc(CNc2nc(-c3cccc(Cl)c3F)nc3c2CCC3)cc1` [Example 67, 2-(3-chloro-2-fluorophenyl)-N-(4-(1-methyl-4-(trifluoromethyl)-1H-imidazol-2-yl)benzyl)-6,7-dihydro-5H-cyclopenta[d]pyrimidin-4-amine], for which the inhibition at 1 µM was in the range of 50 to 75%.

With `CC(=O)Nc1cccc(-c2nc3c(c(NCc4ccc(-c5nc(C(F)(F)F)cn5C)cc4)n2)CCC3)c1` [Example 59, N-(3-(4-((4-(1-methyl-4-(trifluoromethyl)-1H-imidazol-2-yl)benzyl)amino)-6,7-dihydro-5H-cyclopenta[d]pyrimidin-2-yl)phenyl)acetamide], the inhibition at 1 µM lay in the range of 50 to 75%.

On to `COc1ccc(-c2nc(NCc3ccc(-c4nc(C(F)(F)F)cn4C)cc3)c3[nH]cnc3n2)cc1OC` [Example 51, 2-(3,4-dimethoxyphenyl)-N-(4-(1-methyl-4-(trifluoromethyl)-1H-imidazol-2-yl)benzyl)-7H-purin-6-amine], for which the inhibition at 1 µM fell in the range of 50 to 75%. With `Cn1cc(C(F)(F)F)nc1-c1ccc(CNc2nc(-c3ccc(-c4ccccc4)cc3)nc3c2CCC3)cc1` [Example 64, 2-([1,1′-biphenyl]-4-yl)-N-(4-(1-methyl-4-(trifluoromethyl)-1H-imidazol-2-yl)benzyl)-6,7-dihydro-5H-cyclopenta[d]pyrimidin-4-amine], the inhibition at 1 µM lay in the range of 25 to 50%. The same measure, in the same setting: to `Cn1cc(C(F)(F)F)nc1-c1ccc(CNc2nc(-c3cccc(C(N)=O)c3)nc3nc[nH]c23)cc1` [Example 55, 3-(6-((4-(1-methyl-4-(trifluoromethyl)-1H-imidazol-2-yl)benzyl)amino)-7H-purin-2-yl)benzamide] belongs 50 to 75%. With `COc1cc(-c2nc(NCc3ccc(-c4nc(C(F)(F)F)cn4C)cc3)c3[nH]cnc3n2)ccc1F` [Example 52, 2-(4-fluoro-3-methoxyphenyl)-N-(4-(1-methyl-4-(trifluoromethyl)-1H-imidazol-2-yl)benzyl)-7H-purin-6-amine], the inhibition at 1 µM fell in the range of 50 to 75%. Same read-out and setting: next, `CSc1ccc(-c2nc(NCc3ccc(-c4nc(C(F)(F)F)cn4C)cc3)c3[nH]cnc3n2)cc1` [Example 56, N-(4-(1-methyl-4-(trifluoromethyl)-1H-imidazol-2-yl)benzyl)-2-(4-(methylthio)phenyl)-7H-purin-6-amine]: 50 to 75%; `Cc1cccc(-c2nc(NCc3ccc(-c4nc(C(F)(F)F)cn4C)cc3)c3[nH]cnc3n2)c1Cl` [Example 38, 2-(2-chloro-3-methylphenyl)-N-(4-(1-methyl-4-(trifluoromethyl)-1H-imidazol-2-yl)benzyl)-7H-purin-6-amine]: 50 to 75%; `Cn1cc(C(F)(F)F)nc1-c1ccc(CNc2nc(-c3cc(C(F)(F)F)ccc3F)nc3nc[nH]c23)cc1` [Example 44, 2-(2-fluoro-5-(trifluoromethyl)phenyl)-N-(4-(1-methyl-4-(trifluoromethyl)-1H-imidazol-2-yl)benzyl)-7H-purin-6-amine]: 50 to 75%. On the same count and under the same terms, next, `Cn1cc(C(F)(F)F)nc1-c1ccc(CNc2nc(-c3cc(F)cc(F)c3F)nc3c2CCC3)cc1` [Example 74, N-(4-(1-methyl-4-(trifluoromethyl)-1H-imidazol-2-yl)benzyl)-2-(2,3,5-trifluorophenyl)-6,7-dihydro-5H-cyclopenta[d]pyrimidin-4-amine]: 50 to 75%. In the case of `Cn1cc(C(F)(F)F)nc1-c1ccc(CNc2nc(-c3ccc(C#N)cc3)nc3c2CCC3)cc1` [Example 63, 4-(4-((4-(1-methyl-4-(trifluoromethyl)-1H-imidazol-2-yl)benzyl)amino)-6,7-dihydro-5H-cyclopenta[d]pyrimidin-2-yl)benzonitrile], the inhibition at 1 µM is 50 to 75%. As for `Cn1cc(C(F)(F)F)nc1-c1ccc(CNc2nc(-c3cccc(C(F)(F)F)c3)nc3nc[nH]c23)cc1` [Example 58, N-(4-(1-methyl-4-(trifluoromethyl)-1H-imidazol-2-yl)benzyl)-2-(3-(trifluoromethyl)phenyl)-7H-purin-6-amine], the inhibition at 1 µM fell in the range of 50 to 75%. Turning to `Cn1cc(C(F)(F)F)nc1-c1ccc(CNc2nc(-c3cc(F)cc(F)c3)nc3nc[nH]c23)cc1` [Example 41, 2-(3,5-difluorophenyl)-N-(4-(1-methyl-4-(trifluoromethyl)-1H-imidazol-2-yl)benzyl)-7H-purin-6-amine], the inhibition at 1 µM lay within 50 to 75%. Still for that read-out and setting: next, `Cc1cc(C)cc(-c2nc(NCc3ccc(-c4nc(C(F)(F)F)cn4C)cc3)c3[nH]cnc3n2)c1` [Example 50, 2-(3,5-dimethylphenyl)-N-(4-(1-methyl-4-(trifluoromethyl)-1H-imidazol-2-yl)benzyl)-7H-purin-6-amine]: 50 to 75%; `Cn1cc(C(F)(F)F)nc1-c1ccc(CNc2nc(-c3cc(Cl)cc(Cl)c3)nc3c2CCC3)cc1` [Example 73, 2-(3,5-dichlorophenyl)-N-(4-(1-methyl-4-(trifluoromethyl)-1H-imidazol-2-yl)benzyl)-6,7-dihydro-5H-cyclopenta[d]pyrimidin-4-amine]: 50 to 75%; `Cn1cc(C(F)(F)F)nc1-c1ccc(CNc2nc(-c3ccc(Cl)cc3Cl)nc3nc[nH]c23)cc1` [Example 42, 2-(2,4-dichlorophenyl)-N-(4-(1-methyl-4-(trifluoromethyl)-1H-imidazol-2-yl)benzyl)-7H-purin-6-amine]: 50 to 75%. For `CCOc1ccc(-c2nc3c(c(NCc4ccc(-c5nc(C(F)(F)F)cn5C)cc4)n2)CCC3)cn1` [Example 62, 2-(6-ethoxypyridin-3-yl)-N-(4-(1-methyl-4-(trifluoromethyl)-1H-imidazol-2-yl)benzyl)-6,7-dihydro-5H-cyclopenta[d]pyrimidin-4-amine], the inhibition at 1 µM lay within 50 to 75%. Same read-out and setting: next, `COc1ccc(OC)c(-c2nc3c(c(NCc4ccc(-c5nc(C(F)(F)F)cn5C)cc4)n2)CCC3)c1` [Example 66, 2-(2,5-dimethoxyphenyl)-N-(4-(1-methyl-4-(trifluoromethyl)-1H-imidazol-2-yl)benzyl)-6,7-dihydro-5H-cyclopenta[d]pyrimidin-4-amine]: 50 to 75%.

In the case of `COc1cccc(-c2nc(NCc3ccc(-c4nc(C(F)(F)F)cn4C)cc3)c3[nH]cnc3n2)c1F` [Example 48, 2-(2-fluoro-3-methoxyphenyl)-N-(4-(1-methyl-4-(trifluoromethyl)-1H-imidazol-2-yl)benzyl)-7H-purin-6-amine], the inhibition at 1 µM fell in the range of 50 to 75%. On the same count and under the same terms, next, `Cn1cc(C(F)(F)F)nc1-c1ccc(CNc2nc(-c3ccc(F)c(C#N)c3)nc3nc[nH]c23)cc1` [Example 49, 2-fluoro-5-(6-((4-(1-methyl-4-(trifluoromethyl)-1H-imidazol-2-yl)benzyl)amino)-7H-purin-2-yl)benzonitrile]: 50 to 75%; `Cn1cc(C(F)(F)F)nc1-c1ccc(CNc2nc(-c3ccccc3C(F)(F)F)nc3nc[nH]c23)cc1` [Example 45, N-(4-(1-methyl-4-(trifluoromethyl)-1H-imidazol-2-yl)benzyl)-2-(2-(trifluoromethyl)phenyl)-7H-purin-6-amine]: 50 to 75%; `Cn1cc(C(F)(F)F)nc1-c1ccc(CNc2nc(-c3cccc(C(N)=O)c3)nc3c2CCC3)cc1` [Example 72, 3-(4-((4-(1-methyl-4-(trifluoromethyl)-1H-imidazol-2-yl)benzyl)amino)-6,7-dihydro-5H-cyclopenta[d]pyrimidin-2-yl)benzamide]: 50 to 75%. As for `COc1ccc(-c2nc3c(c(NCc4ccc(-c5nc(C(F)(F)F)cn5C)cc4)n2)CCC3)c(OC)n1` [Example 65, 2-(2,6-dimethoxypyridin-3-yl)-N-(4-(1-methyl-4-(trifluoromethyl)-1H-imidazol-2-yl)benzyl)-6,7-dihydro-5H-cyclopenta[d]pyrimidin-4-amine], the inhibition at 1 µM was in the range of 50 to 75%.

The assay is the same for the next values; noted with them: read-out: Biochemical assay % inhibition @10 μM.
For `COc1ccncc1-c1nc(NCc2ccc(-c3nc(C(F)(F)F)cn3C)cc2)c2[nH]cnc2n1` [Example 34, 2-(4-methoxypyridin-3-yl)-N-(4-(1-methyl-4-(trifluoromethyl)-1H-imidazol-2-yl)benzyl)-7H-purin-6-amine], the inhibition at 10 µM is above 75%. Still for that read-out and setting: to `Cn1cc(C(F)(F)F)nc1-c1ccc(CNc2nc(N3CCOCC3)nc3nc[nH]c23)cc1` [Example 36, N-(4-(1-methyl-4-(trifluoromethyl)-1H-imidazol-2-yl)benzyl)-2-morpholino-7H-purin-6-amine] belongs 50 to 75%; to `COc1cccc(F)c1-c1nc(NCc2ccc(-c3nc(C(F)(F)F)cn3C)cc2)c2[nH]cnc2n1` [Example 30, 2-(2-fluoro-6-methoxyphenyl)-N-(4-(1-methyl-4-(trifluoromethyl)-1H-imidazol-2-yl)benzyl)-7H-purin-6-amine], above 75%.
